The source of these data is ChEMBL document CHEMBL3991601, “The target landscape of clinical kinase drugs” (Science, 2017).

Experiment [1] concerns the target Casein kinase I isoform delta (Homo sapiens, UniProt P48730).
The next experiment deals with Misshapen-like kinase 1 (Homo sapiens, UniProt Q8N4C8).
Experiment [2] has as its target Cyclin-dependent kinase 12 (Homo sapiens, UniProt Q9NYV4).
In experiment [3] the target is T1, Cysteine--tRNA ligase, cytoplasmic (Homo sapiens, UniProt P49589).
T1 sequence (P49589 whole entry): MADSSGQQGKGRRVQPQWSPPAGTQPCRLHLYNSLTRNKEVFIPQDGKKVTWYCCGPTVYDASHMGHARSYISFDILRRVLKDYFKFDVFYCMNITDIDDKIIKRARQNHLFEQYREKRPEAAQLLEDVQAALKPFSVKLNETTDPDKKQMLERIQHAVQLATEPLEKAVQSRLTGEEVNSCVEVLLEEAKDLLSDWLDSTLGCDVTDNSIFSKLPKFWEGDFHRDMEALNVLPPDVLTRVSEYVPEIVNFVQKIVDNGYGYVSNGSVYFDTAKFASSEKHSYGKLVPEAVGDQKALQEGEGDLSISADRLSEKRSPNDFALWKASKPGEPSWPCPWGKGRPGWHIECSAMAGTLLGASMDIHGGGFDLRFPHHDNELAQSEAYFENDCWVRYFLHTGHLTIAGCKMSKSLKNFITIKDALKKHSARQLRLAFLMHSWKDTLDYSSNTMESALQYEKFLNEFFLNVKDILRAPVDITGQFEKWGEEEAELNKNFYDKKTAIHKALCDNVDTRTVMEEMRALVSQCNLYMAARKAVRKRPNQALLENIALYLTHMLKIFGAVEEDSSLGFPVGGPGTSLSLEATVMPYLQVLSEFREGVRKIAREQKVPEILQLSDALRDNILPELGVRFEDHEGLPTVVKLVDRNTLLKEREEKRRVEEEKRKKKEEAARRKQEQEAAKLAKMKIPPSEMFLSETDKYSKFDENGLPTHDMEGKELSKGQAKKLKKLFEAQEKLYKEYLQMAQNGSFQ

In experiment [4] the target is Ribosomal protein S6 kinase alpha-1 (Homo sapiens, UniProt Q15418).
Sequence of Ribosomal protein S6 kinase alpha-1 (Q15418 whole entry): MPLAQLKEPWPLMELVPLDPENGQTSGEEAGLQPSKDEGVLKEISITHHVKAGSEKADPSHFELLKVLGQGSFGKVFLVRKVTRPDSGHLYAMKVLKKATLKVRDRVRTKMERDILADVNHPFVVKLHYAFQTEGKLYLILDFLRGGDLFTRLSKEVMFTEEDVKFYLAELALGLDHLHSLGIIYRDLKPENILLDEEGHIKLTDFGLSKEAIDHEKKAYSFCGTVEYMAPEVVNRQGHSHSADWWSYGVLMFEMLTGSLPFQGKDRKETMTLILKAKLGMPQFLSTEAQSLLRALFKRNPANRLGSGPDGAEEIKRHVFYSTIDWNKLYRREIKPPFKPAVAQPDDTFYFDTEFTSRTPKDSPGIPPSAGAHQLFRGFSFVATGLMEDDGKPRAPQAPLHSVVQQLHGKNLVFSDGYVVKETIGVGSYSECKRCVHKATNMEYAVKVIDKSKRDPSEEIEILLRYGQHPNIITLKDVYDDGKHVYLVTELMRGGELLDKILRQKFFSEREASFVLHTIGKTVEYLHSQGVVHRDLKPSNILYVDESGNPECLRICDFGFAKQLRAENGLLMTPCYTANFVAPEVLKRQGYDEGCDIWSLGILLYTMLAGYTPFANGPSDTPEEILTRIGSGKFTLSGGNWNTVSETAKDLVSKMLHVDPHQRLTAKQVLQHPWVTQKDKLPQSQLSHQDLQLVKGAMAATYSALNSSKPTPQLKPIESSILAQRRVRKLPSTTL
For experiment [5], the target named is Serine/threonine-protein kinase 24 (Homo sapiens, UniProt Q9Y6E0).
Sequence of Serine/threonine-protein kinase 24 (Q9Y6E0 whole entry): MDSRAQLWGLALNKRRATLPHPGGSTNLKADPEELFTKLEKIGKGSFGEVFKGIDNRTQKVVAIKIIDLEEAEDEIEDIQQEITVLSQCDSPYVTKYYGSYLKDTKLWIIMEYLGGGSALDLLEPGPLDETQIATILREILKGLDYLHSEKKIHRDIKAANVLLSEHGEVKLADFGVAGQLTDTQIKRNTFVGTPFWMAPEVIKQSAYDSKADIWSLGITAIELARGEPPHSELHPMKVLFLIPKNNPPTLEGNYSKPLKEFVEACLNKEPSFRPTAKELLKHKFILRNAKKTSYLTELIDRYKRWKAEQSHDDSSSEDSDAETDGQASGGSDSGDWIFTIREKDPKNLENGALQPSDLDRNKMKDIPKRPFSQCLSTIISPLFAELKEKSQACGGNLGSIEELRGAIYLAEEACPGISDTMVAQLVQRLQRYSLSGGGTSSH
Experiment [6] concerns the target Cyclin-dependent kinase 4 (Homo sapiens, UniProt P11802).
In experiment [7] the target is Ribosomal protein S6 kinase alpha-4 (Homo sapiens, UniProt O75676).
Sequence of Ribosomal protein S6 kinase alpha-4 (O75676 whole entry): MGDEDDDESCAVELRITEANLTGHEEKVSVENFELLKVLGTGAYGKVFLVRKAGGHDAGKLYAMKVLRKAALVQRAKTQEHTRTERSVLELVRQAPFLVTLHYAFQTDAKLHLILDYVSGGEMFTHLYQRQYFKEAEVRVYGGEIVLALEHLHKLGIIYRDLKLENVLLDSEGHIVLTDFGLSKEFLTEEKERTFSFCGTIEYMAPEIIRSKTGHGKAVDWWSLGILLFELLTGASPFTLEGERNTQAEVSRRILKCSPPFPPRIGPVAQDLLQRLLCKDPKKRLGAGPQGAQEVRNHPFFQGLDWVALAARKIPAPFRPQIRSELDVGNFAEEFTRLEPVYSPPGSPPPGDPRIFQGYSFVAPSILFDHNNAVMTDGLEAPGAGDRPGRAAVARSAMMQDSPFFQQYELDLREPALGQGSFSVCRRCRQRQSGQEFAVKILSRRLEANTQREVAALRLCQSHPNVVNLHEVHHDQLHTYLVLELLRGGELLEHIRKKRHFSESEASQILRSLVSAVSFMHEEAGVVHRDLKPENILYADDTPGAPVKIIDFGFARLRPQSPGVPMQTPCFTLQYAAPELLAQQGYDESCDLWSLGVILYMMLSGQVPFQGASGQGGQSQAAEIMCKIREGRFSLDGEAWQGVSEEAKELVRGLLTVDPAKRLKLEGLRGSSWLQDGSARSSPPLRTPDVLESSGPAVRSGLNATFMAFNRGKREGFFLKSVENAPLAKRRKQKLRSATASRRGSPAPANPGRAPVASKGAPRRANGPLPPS
The target of experiment [8] is Serine/threonine-protein kinase PAK 2 (Homo sapiens, UniProt Q13177).
The target of experiment [9] is T2, Serine/threonine-protein kinase Chk1 (Homo sapiens, UniProt O14757).
T2 sequence (O14757 whole entry): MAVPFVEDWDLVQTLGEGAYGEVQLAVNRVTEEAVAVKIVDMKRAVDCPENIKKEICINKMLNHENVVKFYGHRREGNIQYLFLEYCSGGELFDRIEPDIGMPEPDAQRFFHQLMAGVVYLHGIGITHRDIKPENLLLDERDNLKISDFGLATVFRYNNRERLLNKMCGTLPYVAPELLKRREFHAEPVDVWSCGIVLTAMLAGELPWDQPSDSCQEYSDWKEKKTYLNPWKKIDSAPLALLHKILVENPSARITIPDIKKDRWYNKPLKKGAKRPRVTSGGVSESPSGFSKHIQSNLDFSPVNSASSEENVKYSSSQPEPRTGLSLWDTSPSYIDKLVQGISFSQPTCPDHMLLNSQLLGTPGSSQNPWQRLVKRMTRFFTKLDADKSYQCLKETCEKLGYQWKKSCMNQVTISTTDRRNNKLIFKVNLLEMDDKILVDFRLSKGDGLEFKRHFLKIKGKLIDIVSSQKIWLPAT

Experiment [10] deals with T3, Isoleucine--tRNA ligase, mitochondrial (Homo sapiens, UniProt Q9NSE4).
T3 sequence (Q9NSE4 whole entry): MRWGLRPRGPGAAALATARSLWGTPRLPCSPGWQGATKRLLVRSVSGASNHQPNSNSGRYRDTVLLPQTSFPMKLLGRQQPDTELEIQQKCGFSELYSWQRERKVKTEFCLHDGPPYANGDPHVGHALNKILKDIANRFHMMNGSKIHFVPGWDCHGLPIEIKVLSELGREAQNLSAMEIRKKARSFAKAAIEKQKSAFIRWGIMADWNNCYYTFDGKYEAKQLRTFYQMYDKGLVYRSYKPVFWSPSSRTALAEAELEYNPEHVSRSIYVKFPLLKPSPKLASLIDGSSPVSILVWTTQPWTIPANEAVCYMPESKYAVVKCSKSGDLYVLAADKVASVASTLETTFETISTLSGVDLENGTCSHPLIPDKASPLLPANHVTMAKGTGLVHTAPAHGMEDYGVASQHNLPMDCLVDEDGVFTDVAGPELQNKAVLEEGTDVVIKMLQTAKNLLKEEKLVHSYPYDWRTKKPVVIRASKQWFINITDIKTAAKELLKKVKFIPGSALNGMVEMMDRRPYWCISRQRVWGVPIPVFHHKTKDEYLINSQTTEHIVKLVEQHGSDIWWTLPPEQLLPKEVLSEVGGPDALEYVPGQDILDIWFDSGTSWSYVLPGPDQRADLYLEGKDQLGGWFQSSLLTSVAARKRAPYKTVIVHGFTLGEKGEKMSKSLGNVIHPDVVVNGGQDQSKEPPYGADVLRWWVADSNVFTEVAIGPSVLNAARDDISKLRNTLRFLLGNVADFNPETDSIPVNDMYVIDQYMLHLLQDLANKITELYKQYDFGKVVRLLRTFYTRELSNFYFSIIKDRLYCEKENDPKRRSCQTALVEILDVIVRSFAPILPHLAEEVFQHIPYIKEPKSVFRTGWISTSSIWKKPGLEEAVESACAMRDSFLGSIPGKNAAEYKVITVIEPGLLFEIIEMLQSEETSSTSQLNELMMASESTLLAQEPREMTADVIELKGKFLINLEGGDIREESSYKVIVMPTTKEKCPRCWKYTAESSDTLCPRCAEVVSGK

The target of experiment [11] is PAS domain-containing serine/threonine-protein kinase (Homo sapiens, UniProt Q96RG2).

Structures can show the parent of a compound that is named as a salt. Calls of active or inactive are those of the source.
Further: in the data inactive means no Kd found up to 30 µM.

Sequence of Cyclin-dependent kinase 12 (Q9NYV4 whole entry): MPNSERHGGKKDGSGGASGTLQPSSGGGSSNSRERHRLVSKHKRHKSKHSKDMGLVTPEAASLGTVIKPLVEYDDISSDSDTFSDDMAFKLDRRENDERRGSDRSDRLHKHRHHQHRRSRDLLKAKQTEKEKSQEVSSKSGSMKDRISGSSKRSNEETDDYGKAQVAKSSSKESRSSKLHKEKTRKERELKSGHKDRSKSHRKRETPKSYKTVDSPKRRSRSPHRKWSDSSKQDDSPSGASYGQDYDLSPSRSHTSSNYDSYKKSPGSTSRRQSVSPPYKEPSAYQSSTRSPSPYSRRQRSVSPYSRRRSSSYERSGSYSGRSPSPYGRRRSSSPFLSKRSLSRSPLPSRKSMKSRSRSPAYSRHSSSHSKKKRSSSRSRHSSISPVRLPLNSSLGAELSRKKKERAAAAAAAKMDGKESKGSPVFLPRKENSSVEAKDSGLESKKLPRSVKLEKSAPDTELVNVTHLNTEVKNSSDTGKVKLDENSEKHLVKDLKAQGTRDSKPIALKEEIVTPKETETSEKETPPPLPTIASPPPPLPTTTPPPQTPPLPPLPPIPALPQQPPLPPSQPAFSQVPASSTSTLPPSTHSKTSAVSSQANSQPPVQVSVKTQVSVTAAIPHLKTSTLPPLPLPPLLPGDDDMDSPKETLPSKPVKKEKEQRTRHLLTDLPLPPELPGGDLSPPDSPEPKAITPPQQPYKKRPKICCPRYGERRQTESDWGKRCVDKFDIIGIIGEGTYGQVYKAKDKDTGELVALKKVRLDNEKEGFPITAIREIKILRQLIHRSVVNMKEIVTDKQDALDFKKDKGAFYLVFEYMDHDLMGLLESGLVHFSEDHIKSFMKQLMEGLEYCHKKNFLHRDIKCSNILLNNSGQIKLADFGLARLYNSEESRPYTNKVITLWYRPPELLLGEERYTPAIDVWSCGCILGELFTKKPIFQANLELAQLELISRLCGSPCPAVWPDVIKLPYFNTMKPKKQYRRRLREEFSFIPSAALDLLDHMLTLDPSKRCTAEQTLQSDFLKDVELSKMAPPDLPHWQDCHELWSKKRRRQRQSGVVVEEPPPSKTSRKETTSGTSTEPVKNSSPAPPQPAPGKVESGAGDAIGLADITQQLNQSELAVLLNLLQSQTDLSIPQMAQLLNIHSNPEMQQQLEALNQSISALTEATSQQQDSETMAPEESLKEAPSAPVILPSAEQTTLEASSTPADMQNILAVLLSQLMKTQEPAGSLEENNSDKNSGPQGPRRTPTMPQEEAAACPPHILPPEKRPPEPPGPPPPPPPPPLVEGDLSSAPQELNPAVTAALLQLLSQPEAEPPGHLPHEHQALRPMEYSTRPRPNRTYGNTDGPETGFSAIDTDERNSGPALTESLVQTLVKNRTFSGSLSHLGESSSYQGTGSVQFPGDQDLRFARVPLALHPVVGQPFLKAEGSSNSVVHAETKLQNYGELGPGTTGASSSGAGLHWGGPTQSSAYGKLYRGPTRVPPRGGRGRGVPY
Sequence of Cyclin-dependent kinase 4 (P11802 whole entry): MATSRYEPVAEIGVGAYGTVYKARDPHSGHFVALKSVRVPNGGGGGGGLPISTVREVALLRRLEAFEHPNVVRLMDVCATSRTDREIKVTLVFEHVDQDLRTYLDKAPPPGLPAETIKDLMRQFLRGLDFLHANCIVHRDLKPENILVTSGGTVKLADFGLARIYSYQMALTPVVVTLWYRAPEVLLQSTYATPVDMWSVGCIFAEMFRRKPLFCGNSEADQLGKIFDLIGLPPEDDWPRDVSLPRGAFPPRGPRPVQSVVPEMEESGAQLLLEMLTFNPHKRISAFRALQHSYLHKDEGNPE
Sequence of Misshapen-like kinase 1 (Q8N4C8 whole entry): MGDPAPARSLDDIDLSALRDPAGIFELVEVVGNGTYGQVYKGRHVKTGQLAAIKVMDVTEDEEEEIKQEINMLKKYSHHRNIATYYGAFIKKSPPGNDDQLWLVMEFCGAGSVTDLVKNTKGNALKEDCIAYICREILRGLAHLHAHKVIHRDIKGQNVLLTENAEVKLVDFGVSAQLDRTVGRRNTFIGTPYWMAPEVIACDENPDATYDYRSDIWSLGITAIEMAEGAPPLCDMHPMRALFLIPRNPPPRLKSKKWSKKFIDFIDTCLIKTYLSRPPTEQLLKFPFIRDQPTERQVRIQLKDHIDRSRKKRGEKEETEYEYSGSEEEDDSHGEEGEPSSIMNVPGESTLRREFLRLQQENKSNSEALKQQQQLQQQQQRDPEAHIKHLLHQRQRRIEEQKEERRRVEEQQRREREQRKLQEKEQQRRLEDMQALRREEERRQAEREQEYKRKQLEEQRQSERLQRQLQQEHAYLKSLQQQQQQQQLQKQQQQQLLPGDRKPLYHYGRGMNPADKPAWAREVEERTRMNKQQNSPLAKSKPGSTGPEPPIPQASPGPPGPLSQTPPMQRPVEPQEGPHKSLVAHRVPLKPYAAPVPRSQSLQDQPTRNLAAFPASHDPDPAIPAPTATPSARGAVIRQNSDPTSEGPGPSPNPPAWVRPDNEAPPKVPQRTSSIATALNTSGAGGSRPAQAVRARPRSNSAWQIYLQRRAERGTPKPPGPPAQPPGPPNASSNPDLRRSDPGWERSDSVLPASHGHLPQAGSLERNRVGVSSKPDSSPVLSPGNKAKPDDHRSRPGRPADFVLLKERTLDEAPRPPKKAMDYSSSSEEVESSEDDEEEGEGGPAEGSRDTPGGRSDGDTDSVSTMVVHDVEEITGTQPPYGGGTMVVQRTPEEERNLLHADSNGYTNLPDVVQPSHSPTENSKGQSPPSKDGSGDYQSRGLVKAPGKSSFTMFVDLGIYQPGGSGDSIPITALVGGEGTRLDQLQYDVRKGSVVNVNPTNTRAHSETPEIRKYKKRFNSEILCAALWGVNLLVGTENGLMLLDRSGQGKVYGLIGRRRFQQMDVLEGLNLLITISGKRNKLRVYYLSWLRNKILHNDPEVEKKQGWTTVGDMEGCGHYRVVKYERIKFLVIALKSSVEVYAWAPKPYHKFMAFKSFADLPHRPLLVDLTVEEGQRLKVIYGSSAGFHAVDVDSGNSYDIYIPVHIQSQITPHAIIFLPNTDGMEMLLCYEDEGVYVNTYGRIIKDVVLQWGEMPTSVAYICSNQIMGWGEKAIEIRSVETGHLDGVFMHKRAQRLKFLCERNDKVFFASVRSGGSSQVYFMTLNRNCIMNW

As a reminder, the Kd is the constant that tells how readily two partners part at equilibrium. Take `CCNC(=O)C#Cc1ccc2c(c1)NC(=O)/C2=C(\Nc1ccc(CN(C)C)cc1)c1ccccc1`: the Kd in experiment [1] is > 30 µM (inactive); on Misshapen-like kinase 1, > 30 µM (inactive); in [2], > 30 µM (inactive); in experiment [3], > 30 µM (inactive); in experiment [4], 0.799 µM (active); in experiment [5], > 30 µM (inactive). Also, the Kd in [6] was > 30 µM (inactive); in [7] it was 1.46 µM (active); in experiment [8] it was > 30 µM (inactive); in experiment [9] it was > 30 µM (inactive).
`Cc1nc(NC(=O)N2CCC[C@H]2C(N)=O)sc1-c1ccnc(C(C)(C)C(F)(F)F)c1` [ALPELISIB]: the Kd (in [1]; on Misshapen-like kinase 1; in [2]; in experiment [3]; in experiment [4]; in experiment [10]) was > 30 µM (inactive) in each case. In addition, the Kd in experiment [6], in experiment [7], in experiment [8] and in [9] was > 30 µM (inactive) throughout.
Consider `Cc1cc(C(=O)NOCCO)c(Nc2ccc(I)cc2F)n(C)c1=O` [AZD-8330], for which the Kd (in experiment [1]; on Misshapen-like kinase 1; in experiment [2]; in [3]; in experiment [4]; in experiment [6]) was > 30 µM (inactive) throughout. Further, the Kd in experiment [7], in [8], in experiment [11] and in experiment [9] was > 30 µM (inactive) in each case.
Turning to `Cc1cc(Nc2ncc(Cl)c(Nc3ccccc3S(=O)(=O)C(C)C)n2)c(OC(C)C)cc1C1CCNCC1` [CERITINIB], the Kd was > 30 µM (inactive) in experiment [1]; > 30 µM (inactive) at Misshapen-like kinase 1; > 30 µM (inactive) in experiment [2]; > 30 µM (inactive) in experiment [3]; 21.4 µM (active) in [4]; > 30 µM (inactive) in [6]. Moreover, the Kd in experiment [7], in experiment [8] and in experiment [9] was > 30 µM (inactive) throughout.
On to `COc1c(OCCCN2CCOCC2)ccc2c1N=C(NC(=O)c1cnc(N)nc1)N1CCN=C21` [COPANLISIB], for which the Kd (in [1]; on Misshapen-like kinase 1; in [2]; in experiment [3]; in [4]; in experiment [5]) was > 30 µM (inactive) in each case. Besides, the Kd in [6], in experiment [7], in experiment [8], in [11] and in [9] was > 30 µM (inactive) in each case.
As to `C#Cc1cccc(Nc2ncnc3cc(OC)c(OCCCCCCC(=O)NO)cc23)c1` [CUDC-101], the Kd (in experiment [1]; at Misshapen-like kinase 1; in experiment [2]; in [3]; in experiment [4]; in experiment [6]) was > 30 µM (inactive) each time. For the same compound, the Kd in experiment [7], in experiment [8], in [11] and in experiment [9] was > 30 µM (inactive) throughout.
As for `CCS(=O)(=O)N1CCN(c2ccc(Nc3ncc(C(N)=O)c(NC4CC4)n3)cc2)CC1` [Cerdulatinib Hydrochloride], the Kd (in experiment [1]; on Misshapen-like kinase 1; in experiment [2]; in experiment [4]; in experiment [6]; in experiment [7]) was > 30 µM (inactive) throughout. In addition, the Kd in experiment [8] was > 30 µM (inactive); in experiment [11], > 30 µM (inactive); in experiment [9] it was 0.701 µM (active).
In the case of `O=C(Nc1nc2cccc(-c3ccc(CN4CCS(=O)(=O)CC4)cc3)n2n1)C1CC1` [FILGOTINIB], the Kd (in experiment [1]; on Misshapen-like kinase 1; in experiment [2]; in experiment [4]; in experiment [10]; in experiment [5]) was > 30 µM (inactive) in each case. Besides, the Kd in experiment [6], in experiment [7], in experiment [8] and in experiment [9] was > 30 µM (inactive) each time.
`O=C(Nc1cc(C(F)(F)F)cc(C(F)(F)F)c1)c1cc(Cl)ccc1O` [IMD-0354]: the Kd (in experiment [1]; at Misshapen-like kinase 1; in experiment [2]; in experiment [3]; in experiment [4]; in experiment [5]) was > 30 µM (inactive) each time. Also, the Kd in [6], in experiment [7] and in experiment [8] was > 30 µM (inactive) each time.
Consider `CCOc1cc2ncc(C#N)c(Nc3ccc(F)c(Cl)c3)c2cc1NC(=O)/C=C/CN(C)C` [PELITINIB], for which the Kd is 3.88 µM (active) in experiment [1]; > 30 µM (inactive) at Misshapen-like kinase 1; > 30 µM (inactive) in experiment [2]; > 30 µM (inactive) in experiment [3]; > 30 µM (inactive) in experiment [4]; > 30 µM (inactive) in experiment [10]. Also, the Kd in experiment [6], in experiment [7], in experiment [8], in [11] and in experiment [9] was > 30 µM (inactive) in each case.
Consider `Cn1cc(-c2cnn3c(N)c(Br)c([C@@H]4CCCNC4)nc23)cn1` [SCH-900776], for which the Kd in [1] was > 30 µM (inactive); on Misshapen-like kinase 1, > 30 µM (inactive); in [2] it was > 30 µM (inactive); in experiment [4] it was > 30 µM (inactive); in [6], > 30 µM (inactive); in [7], 3.41 µM. In addition, the Kd in [8] and in experiment [11] was > 30 µM (inactive) each time.
